Data published in PubChem BioAssay (NCI).
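Following 48 hours of exposure in 96-well plates, responses at five concentrations were used to interpolate endpoints linearly. GI50 marks 50% less growth. TGI denotes the concentration required for complete inhibition of growth.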

What was measured:
Assay in all cases: NCI tumour cell line growth inhibition, 48 h
[1] = tested on: EKVX NSCLC
[2] = tested on: HT29 colon
[3] = tested on: K-562 leukemia
[4] = tested on: OVCAR-5 ovarian
[5] = tested on: RPMI-8226 leukemia
[6] = tested on: SW-620 colon
[7] = tested on: T-47D breast
[8] = tested on: UACC-257 melanoma

Row | Structure (SMILES) | TGI [1] [µM] | TGI [2] [µM] | TGI [3] [µM] | TGI [4] [µM] | TGI [5] [µM] | TGI [6] [µM] | TGI [7] [µM] | TGI [8] [µM] | GI50 [2] [µM] | GI50 [3] [µM] | GI50 [4] [µM] | GI50 [5] [µM] | GI50 [6] [µM] | GI50 [7] [µM] | GI50 [8] [µM] | GI50 [1] [µM]
1 | C=Cn1c([N+](=O)[O-])cnc1/C=C/c1ccc(C(=O)OCCN2CCOCC2)cc1 | > 100 | > 100 | > 100 | > 100 | 78.4 | > 100 | > 100 | > 100 | – | – | – | – | – | – | – | –
2 | COC(=O)Cc1cc(=O)[nH]c2c1C(=O)CCC2 | > 100 | > 100 | > 100 | > 100 | > 100 | > 100 | – | > 100 | – | – | – | – | – | – | – | –
3 | COc1ccc(CCN2CCC(CN(C)Cc3cnn(-c4ccccc4)c3)CC2)cc1 | – | 17.3 | 10.9 | 58.3 | 42.1 | 33.6 | 30.7 | 7.12 | 4.29 | 3.14 | 14.8 | 13.8 | 16.5 | 10.4 | 2.59 | –
4 | COc1c(N2CCN(CN3C(=O)C(=O)c4cc(Cl)ccc43)C(C)C2)c(F)cc2c(=O)c(C(=O)O)cn(C3CC3)c12 (stereo unspecified) | > 100 | > 100 | > 100 | > 100 | 25.7 | 75.8 | – | 72.9 | 30.9 | 14 | 85.9 | 9.07 | 14.2 | – | 27.7 | 13.7
5 | COc1ccc(-c2csc(NC(=O)CN3CCN(c4cc5c(cc4F)c(=O)c(C(=O)O)cn5C4CC4)CC3)n2)cc1 | > 100 | > 100 | – | – | > 100 | > 100 | – | – | 3.49 | – | – | 2.69 | 3.9 | – | – | 4.39
6 | Cl.Fc1c[c-]c(-c2ccccn2)c(F)c1.[Pt].c1ccc([PH+](C[PH+](c2ccccc2)c2ccccc2)c2ccccc2)cc1 | 1.05 | – | 0.573 | 1.18 | 0.544 | 0.494 | 1.02 | 0.829 | – | 0.0483 | 0.324 | 0.161 | 0.197 | 0.135 | 0.269 | 0.261
7 | COc1cc(C)c2sc3ccccc3c(=O)c2c1NCCN(C)C | – | 9.15 | 4.61 | 22.3 | 8.87 | 14.5 | 9.4 | 3.97 | 2.62 | 2.3 | 9.57 | 2.85 | 3.39 | 2.58 | 2.06 | –
8 | COc1cc(Cl)cc(-c2nn(-c3cccc(NC(=O)Nc4ccc(Cl)c(Cl)c4)c3)cc2-c2ccncc2)c1 | – | 9.07 | > 100 | > 100 | 3.37 | > 100 | 18.9 | 5.19 | 2.38 | 1.96 | 4.36 | 0.652 | 3.43 | 2.78 | 1.84 | –
9 | CC(=O)O[C@H]1CC[C@@]2(C)C(=C/C(=N/OCCN3CCCC3)[C@H]3[C@@H]4CC[C@H](OC(C)=O)[C@@]4(C)CC[C@@H]32)C1 | > 100 | > 100 | > 100 | > 100 | 53.3 | 59.8 | > 100 | – | 12.5 | 27.3 | 73.8 | 22 | 24.1 | 52.1 | – | > 100
10 | CCOc1ccc2c(c1)c(CC(=O)O)cn2C | > 100 | > 100 | > 100 | – | > 100 | – | > 100 | > 100 | – | – | – | – | – | – | – | –
11 | CC(=O)c1ccc(NC(=O)C(=O)C(C#N)CC(C)(C)C=O)cc1 (stereo unspecified) | > 100 | > 100 | > 100 | > 100 | > 100 | > 100 | – | > 100 | – | – | – | – | – | – | – | –
12 | CC1(C)Cc2c(Br)c(Br)c(Br)c(OCC(O)CN3CCN(c4ccccn4)CC3)c2O1 (stereo unspecified) | 43.2 | 18 | 20.3 | 31.3 | – | 29.2 | > 100 | 39.7 | 5.5 | 4.1 | 16.2 | – | 15.2 | 18.3 | 16.6 | 11.3
13 | O=Cc1ccc(-c2ccc(-c3nc4ccccc4s3)cc2)s1 | > 100 | > 100 | > 100 | > 100 | – | > 100 | > 100 | > 100 | 77.3 | 37.1 | > 100 | – | 56.4 | > 100 | > 100 | 42.1
14 | CCN1C(=NCCO)NS(=O)(=O)c2ccccc21 | > 100 | > 100 | > 100 | > 100 | – | > 100 | > 100 | > 100 | – | – | – | – | – | – | – | –
15 | Cc1nc2cc(Nc3nc(Nc4ccc(F)cc4)nc(N4CCOCC4)n3)ccc2n1Cc1ccccc1 | – | 4.07 | 11.7 | 28.6 | 5.86 | 30.8 | > 100 | 4.42 | 1.93 | 2.94 | 12.3 | 2.19 | 3.97 | 3.88 | 2.11 | –
16 | CN(CCC(=O)/C(=C\c1ccccc1)c1ccc(Cl)cc1)Cc1ccccc1 | 18.8 | 5.2 | 13.1 | 10.4 | – | 7.74 | 9.01 | 24.2 | 2.28 | 2.16 | 3.53 | – | 2.63 | 2.5 | 10.7 | 5.37
17 | Cn1cc(C2=C(Nc3ccccc3)C(=O)NC2=O)c2ccccc21 | – | > 25 | > 25 | > 25 | > 25 | > 25 | > 25 | > 25 | 14.7 | > 25 | > 25 | > 25 | > 25 | 16.2 | > 25 | –
18 | Cc1cccc2c3c(sc12)C(c1ccc(F)cc1)C(C#N)=C(N)O3 (stereo unspecified) | 17.6 | 8.4 | > 100 | 12.8 | 8.31 | 14.2 | – | 36.8 | 0.313 | 0.0357 | 0.325 | 0.048 | 0.044 | – | 10.6 | 0.141
